Activity calls are given as the source filed them. No cut-off for these calls is given here.
Tests used:
[1] = biological target: T1, Protein farnesyltransferase (Homo sapiens) (UniProt P49354+P49356); assay: Inhibition of FTase in HEK293 cells assessed as reduction in H-ras farnesylation at […] 10 uM incubated for 48 hrs by SDS-PAGE and immunoblot analysis; format: cell-based
[2] = biological target: Protein farnesyltransferase (Rattus norvegicus, UniProt Q02293+Q04631); assay: Inhibition of rat recombinant FTase alpha/beta expressed in Escherichia coli using K-Ras4B as a substrate as and [3H]farnesyl pyrophosphate incubated for 30 mins by scintillation counting assay
[3] = biological target: T2, Geranylgeranyl transferase type-2 (Homo sapiens) (UniProt P53611+Q92696); assay: Inhibition of RabGGTase in HEK293 cells assessed as reduction in geranylgeranylation of Rab5b protein at 20 uM incubated for 48 hrs by SDS-PAGE and immunoblot analysis; format: cell-based
[4] = biological target: T3, Geranylgeranyl transferase type-2 (Homo sapiens, UniProt P53611+Q92696); assay: Inhibition of RabGGTase (unknown origin) using YPTI as substrate protein and [3H]geranylgeranyl pyrophosphate incubated for 20 mins by scintillation counting assay; format: protein-complex assay
T3 sequence (P53611 whole entry): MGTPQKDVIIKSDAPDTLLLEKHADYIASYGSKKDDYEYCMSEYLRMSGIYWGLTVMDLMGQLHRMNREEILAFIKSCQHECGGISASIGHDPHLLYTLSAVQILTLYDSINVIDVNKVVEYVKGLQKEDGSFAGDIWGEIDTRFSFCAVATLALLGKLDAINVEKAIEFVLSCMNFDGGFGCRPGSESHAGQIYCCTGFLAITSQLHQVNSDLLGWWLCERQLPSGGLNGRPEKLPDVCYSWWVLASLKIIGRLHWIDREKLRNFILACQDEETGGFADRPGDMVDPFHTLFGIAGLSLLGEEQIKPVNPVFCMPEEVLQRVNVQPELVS
T3 sequence (Q92696 whole entry): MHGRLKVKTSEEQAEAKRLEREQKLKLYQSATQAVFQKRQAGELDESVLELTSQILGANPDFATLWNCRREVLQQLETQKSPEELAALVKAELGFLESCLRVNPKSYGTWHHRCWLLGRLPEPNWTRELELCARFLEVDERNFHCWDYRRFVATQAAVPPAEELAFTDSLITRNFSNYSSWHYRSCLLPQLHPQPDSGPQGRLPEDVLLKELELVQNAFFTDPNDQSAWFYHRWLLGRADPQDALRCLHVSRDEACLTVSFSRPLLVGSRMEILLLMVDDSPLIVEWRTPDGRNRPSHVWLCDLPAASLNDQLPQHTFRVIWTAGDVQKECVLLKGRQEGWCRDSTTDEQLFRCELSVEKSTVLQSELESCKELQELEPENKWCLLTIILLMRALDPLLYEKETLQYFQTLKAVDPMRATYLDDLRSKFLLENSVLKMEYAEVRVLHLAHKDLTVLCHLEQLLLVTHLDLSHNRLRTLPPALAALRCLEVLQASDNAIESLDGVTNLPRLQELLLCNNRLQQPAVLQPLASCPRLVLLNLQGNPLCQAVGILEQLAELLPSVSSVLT

[5] = Inhibition of rat recombinant geranylgeranyltransferase type I expressed in Escherichia coli assessed as reduction in geranylgeranylation of RhoA incubated for 30 mins in presence of [3H]GGPP by scintillation counting assay relative to control
[6] = biological target: T2, Geranylgeranyl transferase type-2 (Homo sapiens); assay: Inhibition of RabGGTase in HEK293 cells assessed as increase in Rab5b protein in soluble fraction at 5 to 20 uM incubated for 48 hrs by SDS-PAGE and immunoblot analysis; format: cell-based
HEK293 [7] = assay: Inhibition of geranylgeranyltransferase type I in HEK293 cells expressing Myc-HA-tagged Rheb-WT assessed as effect on unprenylated Rap1 accumulation at 5 to 20 uM incubated for 48 hrs by SDS-PAGE and immunoblot analysis; format: cell-based; conditions: Homo sapiens
[8] = biological target: T2, Geranylgeranyl transferase type-2 (Homo sapiens); assay: Uncompetitive type inhibition of RabGGTase (unknown origin) using fixed Rab7 as substrate protein and varying [3H]geranylgeranyl pyrophosphate incubated for 20 mins by scintillation counting assay; format: protein-complex assay
[9] = biological target: T2, Geranylgeranyl transferase type-2 (Homo sapiens); assay: Inhibition of RabGGTase in HEK293 cells assessed as reduction in geranylgeranylation of Rab5b protein at 5 to 20 uM incubated for 48 hrs by SDS-PAGE and immunoblot analysis; format: cell-based
[10] = biological target: T3, Geranylgeranyl transferase type-2; assay: Competitive type inhibition of RabGGTase (unknown origin) using varying Rab7 as substrate protein and fixed [3H]geranylgeranyl pyrophosphate incubated for 20 mins by scintillation counting assay; format: protein-complex assay
Mus musculus = organism: Mus musculus; assay: Inhibition of geranylgeranyltransferase type I in mouse NIH/3T3 cells transfected with p21WAF1/CIP1 promoter-Luc assessed as induction of p21 CIP1/WAF1 expression by luciferase reporter gene assay; format: cell-based
[11] = Toxicity in SCID mouse xenografted with human PANC1 cells assessed as effect on creatinine level at 1.16 mg/kg, ip dosed 3 times per week and measured every 2 weeks up to day 14 to day 47; format: organism-based; conditions: in vivo, 336 h
PANC-1 [12] = assay: Antitumor activity against human PANC1 cells xenografted in SCID mouse assessed as inhibition of tumor growth at 1.16 mg/kg, ip dosed six times per week and measured every 2 weeks; format: functional, organism-based
[13] = Toxicity in SCID mouse xenografted with human PANC1 cells assessed as effect on RBC level at 1.16 mg/kg, ip dosed 3 times per week and measured every 2 weeks up to day 14 to day 47; format: organism-based; conditions: in vivo, 336 h
HEK293 [14] = assay: Inhibition of geranylgeranyltransferase type I in HEK293 cells expressing Myc-HA-tagged Rheb-WT assessed as effect on unprenylated Rap1 accumulation at 2.5 uM incubated for 48 hrs by SDS-PAGE and immunoblot analysis; format: cell-based; conditions: Homo sapiens
[15] = Toxicity in SCID mouse xenografted with human PANC1 cells assessed as effect on CK level at 1.16 mg/kg, ip dosed 3 times per week and measured every 2 weeks up to day 14 to day 47; format: organism-based; conditions: in vivo, 336 h
[16] = biological target: T2, Geranylgeranyl transferase type-2 (Homo sapiens); assay: Inhibition of RabGGTase (unknown origin) at 100000 nM using YPTI as substrate protein and [3H]geranylgeranyl pyrophosphate incubated for 20 mins by scintillation counting assay; format: protein-complex assay
[17] = Toxicity in SCID mouse xenografted with human PANC1 cells assessed as effect on GLU level at 1.16 mg/kg, ip dosed 3 times per week and measured every 2 weeks up to day 14 to day 47; format: organism-based; conditions: in vivo, 336 h
[18] = Toxicity in SCID mouse xenografted with human PANC1 cells assessed as effect on ALP level at 1.16 mg/kg, ip dosed 3 times per week and measured every 2 weeks up to day 14 to day 47; format: organism-based; conditions: in vivo, 336 h
[19] = Clearance in SCID mouse xenografted with human PANC1 cells at 1.16 mg/kg, ip dosed once or 6 times per week; format: ADME, organism-based; conditions: in vivo
K562 [20] = assay: Induction of cell cycle arrest in human K562 cells assessed as reduction in accumulation at S phase incubated for 48 hrs by flow cytometry; format: functional, cell-based
[21] = Toxicity in SCID mouse xenografted with human PANC1 cells assessed as effect on BUN level at 1.16 mg/kg, ip dosed 3 times per week and measured every 2 weeks up to day 14 to day 47; format: organism-based; conditions: in vivo, 336 h
[22] = biological target: Protein farnesyltransferase (Rattus norvegicus) (UniProt Q04631+Q02293); assay: Inhibition of rat recombinant FTase alpha/beta expressed in Escherichia coli at 100000 nM using K-Ras4B as a substrate as and [3H]farnesyl pyrophosphate incubated for 30 mins by scintillation counting assay
[23] = Toxicity in SCID mouse xenografted with human PANC1 cells assessed as effect on NE level at 1.16 mg/kg, ip dosed 3 times per week and measured every 2 weeks up to day 14 to day 47; format: organism-based; conditions: in vivo, 336 h
PANC-1 [24] = assay: Antitumor activity against human PANC1 cells xenografted in SCID mouse assessed as inhibition of tumor growth at 1.16 mg/kg, ip dosed once time per week and measured every 2 weeks; format: functional, organism-based
K562 [25] = assay: Induction of cell cycle arrest in human K562 cells assessed as accumulation at G1 phase incubated for 48 hrs by flow cytometry; format: functional, cell-based
[26] = Toxicity in SCID mouse xenografted with human PANC1 cells assessed as effect on PLT level at 1.16 mg/kg, ip dosed 3 times per week and measured every 2 weeks up to day 14 to day 47; format: organism-based; conditions: in vivo, 336 h
PANC-1 [27] = assay: Antitumor activity against human PANC1 cells xenografted in SCID mouse assessed as inhibition of tumor growth at 1.16 mg/kg, ip dosed 3 times per week and measured every 2 weeks up to day 14 to day 47; format: functional, organism-based
[28] = biological target: T1, Protein farnesyltransferase (Homo sapiens); assay: Inhibition of FTase in HEK293 cells assessed as reduction in H-ras farnesylation at 2.5 to 10 uM incubated for 48 hrs by SDS-PAGE and immunoblot analysis; format: cell-based
[29] = Toxicity in SCID mouse xenografted with human PANC1 cells assessed as effect on WBC level at 1.16 mg/kg, ip dosed 3 times per week and measured every 2 weeks up to day 14 to day 47; format: organism-based; conditions: in vivo, 336 h
[30] = Toxicity in SCID mouse xenografted with human PANC1 cells assessed as effect on ALB level at 1.16 mg/kg, ip dosed 3 times per week and measured every 2 weeks up to day 14 to day 47; format: organism-based; conditions: in vivo, 336 h
MCF7 = assay: Antiproliferative activity against human MCF7 cells assessed as inhibition of cell proliferation incubated for 6 days by CCK8 assay; format: functional, cell-based
[31] = Toxicity in SCID mouse xenografted with human PANC1 cells assessed as effect on AST […] level at 1.16 mg/kg, ip dosed 3 times per week and measured every 2 weeks up to day 14 to day 47; format: organism-based; conditions: in vivo, 336 h
[32] = biological target: T2, Geranylgeranyl transferase type-2 (Homo sapiens); assay: Inhibition of RabGGTase in HEK293 cells assessed as reduction in geranylgeranylation of Rab5b protein at 5 to 10 uM incubated for 48 hrs by SDS-PAGE and immunoblot analysis; format: cell-based
[33] = Toxicity in SCID mouse xenografted with human PANC1 cells assessed as effect on LY level at 1.16 mg/kg, ip dosed 3 times per week and measured every 2 weeks up to day 14 to day 47; format: organism-based; conditions: in vivo, 336 h
Jurkat = assay: Antiproliferative activity against human Jurkat cells assessed as inhibition of cell proliferation incubated for 72 hrs by CCK8 assay; format: functional, cell-based
[34] = Toxicity in SCID mouse xenografted with human PANC1 cells assessed as effect on CA level at 1.16 mg/kg, ip dosed 3 times per week and measured every 2 weeks up to day 14 to day 47; format: organism-based; conditions: in vivo, 336 h
[35] = Toxicity in SCID mouse xenografted with human PANC1 cells assessed as effect on ALT […] level at 1.16 mg/kg, ip dosed 3 times per week and measured every 2 weeks up to day 14 to day 47; format: organism-based; conditions: in vivo, 336 h
[36] = Toxicity in SCID mouse xenografted with human PANC1 cells assessed as effect on cholesterol level at 1.16 mg/kg, ip dosed 3 times per week and measured every 2 weeks up to day 14 to day 47; format: organism-based; conditions: in vivo, 336 h

Structure (SMILES): CCCCCCS[C@H]1[C@@H](C(=O)O)[C@H](c2ccc(Br)cc2)N(S(=O)(=O)c2ccc(C)cc2)[C@@H]1CCC
- inhibition [1]: inactive
- IC50 [2]: > 100 µM
- inhibition [3]: Active
- IC50 [4]: 2.1 µM
- IC50 [5]: > 50 µM
- inhibition [6]: Active
- inhibition (HEK293 [7]): inactive
- inhibition [8]: Active
- inhibition [9]: Active
- Ki [10]: 1.36 µM

Structure (SMILES): Cc1ccccc1S(=O)(=O)N1[C@@H](c2ccc(Cl)cc2)C(C(=O)N[C@@H](Cc2ccccc2)C(N)=O)=C[C@H]1C(C)(C)C
- Activity (Mus musculus): Dose-dependent effect
- Activity [11]: Non-Toxic
- TGI (PANC-1 [12]): Active
- Activity [13]: Non-Toxic
- inhibition (HEK293 [14]): Active
- Activity [15]: Non-Toxic
- inhibition [16]: inactive
- Activity [17]: Non-Toxic
- Activity [18]: Non-Toxic
- IC50 [5]: 1 to 7.7 µM
- CL/F [19]: 0.0173 mL/min
- Activity (K562 [20]): Dose-dependent effect
- Activity [21]: Non-Toxic
- inhibition [22]: inactive
- Activity [23]: Non-Toxic
- TGI (PANC-1 [24]): Active
- Activity (K562 [25]): Dose-dependent effect
- Activity [26]: Non-Toxic
- TGI (PANC-1 [27]): Active
- inhibition [28]: inactive
- Activity [29]: Non-Toxic
- Activity [30]: Non-Toxic
- inhibition (MCF7): Dose-dependent effect
- Activity [31]: Non-Toxic
- inhibition [32]: inactive
- Activity [33]: Non-Toxic
- GI50 (Jurkat): 4.89 to 6.1 µM
- Activity [34]: Non-Toxic
- Activity [35]: Non-Toxic
- Activity [36]: Non-Toxic
